Data taken from patent publication US20050214738A1, “Conditional allele system” (priority 2003, published 2005).

Columns and labels:
[1] = tested on: embryos; assay: Overt effects on mother and embryos after IP injection of pregnant mice; format: in vivo, mouse; conditions: 200 mg/kg/day, 3 IP injections every 12 hours, E10.0 to E11.5
Experimental: GSK-3β^+/FRB* mice were intercrossed and the date of vaginal plug observation was set as E0.5. At E9.5, the stage of embryonic development was confirmed by ultrasonography (Chang, C. P. et al. “Sonographic Staging of the Developmental Status of Mouse Embryos in Utero.” (2003) Published in Genesis 36, 7-11) and mice were weighed. Drug administration commenced at E10.0. […] 100 μL was immediately injected intraperitoneally (IP) to pregnant females with injections repeated twice more at 12 hour intervals to E11.5 when mice were sacrificed, and embryos and organs were dissected and frozen in […]. Tissues anterior to the embryonic forelimbs of individual embryos were used for preparation of protein extracts with the remainder used to determine the concentration of drug and for genotyping.

[2] = biological target: T1, FRB*Pax6 (UniProt P26883+P42345, K2095P/T2098L/W2101F); assay: Whole embryo culture, inducible stabilization of FRB*Pax6; parameters: species or system mouse
T1 construct: The minimal FRB domain comprises amino acids 2025-2114 of human mTor; from tissue; host or cells: e13.5 cortical neural cultures (A14) and cultured whole embryos (A15) from Pax6^FRB* knock-in mice; fusion expressed from the targeted endogenous locus
T1 sequence (P42345 2025-2114 K2095P/T2098L/W2101F): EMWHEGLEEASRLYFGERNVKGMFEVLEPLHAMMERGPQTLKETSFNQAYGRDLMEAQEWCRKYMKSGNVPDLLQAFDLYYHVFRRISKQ
T1 sequence (P26883 2-108): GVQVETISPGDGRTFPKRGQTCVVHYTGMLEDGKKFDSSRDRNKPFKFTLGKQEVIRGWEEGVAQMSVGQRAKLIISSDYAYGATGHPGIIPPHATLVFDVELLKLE
Experimental: Uterine horns were removed from sacrificed mothers to a petri dish containing Hank's Balanced Salt Solution (HBSS), fat was removed and the uterus cut up to isolate embryos. Individual deciduum were carefully removed from the uterus by carefully pulling apart the muscular layers in a fresh petri dish containing HBSS (sometimes supplemented with 2 mg/mL glucose) under a dissecting microscope. Embryos were removed by cutting along the lateral axis of the deciduum with fine forceps taking care not to puncture the embryonic membranes and teasing off the decidual layers overlying the embryo. Embryos were then separated from the remaining decidua at the ectoplacental cone or primitive placenta (depending on the age of the embryo).
Reichert's membrane was grasped without the underlying visceral yolk sac, carefully torn away from the embryo and trimmed back to the placenta without ripping the yolk sac. […] The bottle rotated slowly in a roller bottle chamber at 37° C. Drugs were added directly to the culture media at the commencement of the culture.
Embryos were fixed overnight in 4% paraformaldehyde/PBS then dehydrated through a staged ethanol series. Endogenous peroxidases were inactivated with 5% H2O2 for 4 hours in ethanol and the embryos were rehydrated. […] Embryos were washed in block 6 hours with 1 hour changes and incubated overnight at 4° C. with […] anti-mouse secondary. Embryos were washed with PBS+0.1% Triton X-100 4 times for 1 hour and developed with the DAB peroxidase kit from Vector laboratories.
Embryos were protected with a staged series to 30% sucrose in PBS after fixation in 4% PFA (60 minutes to overnight at 4° C.). Protected embryos were embedded in OCT (VWR) frozen and sectioned on a Leica cryostat to 10 μm. Thin sections were stained according to standard protocols (obtained upon request). Secondary antibodies were purchased from Molecular Probes (Eugene, Oreg.) and primary antibodies to neurofilament, Lim3, Nkx2.2, Pax6, En1, Isl1 were obtained from Dev. Studies. Additional antibodies were from Covance, Zymed or a generous gift of Tadashi Nomura and Noriko Osumi (Sendai, Japan). Immunofluorescence was visualized by confocal microscopy.

[3] = biological target: GSK-3βFRB* (UniProt P26883+P42345, K2095P/T2098L/W2101F); assay: Stabilization of GSK-3βFRB* in embryos of injected pregnant mice; format: in vivo, mouse; parameters: The minimal FRB domain comprises amino acids 2025-2114 of human mTor; endogenous in cells; host or cells: MEFs from GSK-3β^FRB* knock-in mice (fusion expressed from the targeted endogenous locus); conditions: 200 mg/kg/day IP to mother, embryos harvested at E11.5
Chain of GSK-3βFRB* (P42345 2025-2114 K2095P/T2098L/W2101F): as the sequence (P42345 2025-2114 K2095P/T2098L/W2101F) above
Chain of GSK-3βFRB* (P26883 2-108): as the sequence (P26883 2-108) above
Experimental: GSK-3β^+/FRB* mice were intercrossed and the date of vaginal plug observation was set as E0.5. At E9.5, the stage of embryonic development was confirmed by ultrasonography (Chang, C. P. et al. “Sonographic Staging of the Developmental Status of Mouse Embryos in Utero.” (2003) Published in Genesis 36, 7-11) and mice were weighed. Drug administration commenced at E10.0. C20-MaRap was dissolved as a stock in N,N-dimethylacetamide (DMA) and was diluted into a delivery vehicle containing 10% Polyethylene glycol 400, 17% Polyoxyethylene sorbitan monooleate and 10% DMA to a final concentration of […]. 100 μL was immediately injected intraperitoneally (IP) to pregnant females with injections repeated twice more at 12 hour intervals to E11.5 when mice were sacrificed, and embryos and organs were dissected and frozen in […]. Tissues anterior to the embryonic forelimbs of individual embryos were used for preparation of protein extracts with the remainder used to determine the concentration of drug and for genotyping.

Substance: C20-(R or S)-methallylrapamycin [C20-MaRap]
- overt effect on mother and embryos [1]: Neither the mother nor the embryos were overtly affected
- Lim3 phenotype of caudal hindbrain ([2]; 48 hours from e9.5 to e11.5): could be rescued
- hypoglossal nerve, whole mount neurofilament staining ([2]; 48 hours from e9.5 to e11.5): fasciculated hypoglossal nerve erupts
- expression of FRB*Pax6 protein in the spinal cord ([2]; Pax6FRB*/FRB* embryos, data not shown): rescued
- En1 expressing cells in the V1 domain of spinal cord ([2]; e8.5 embryos cultured 48 hours, 2 μM): rescued the development of En1 expressing cells
- cells expressing Lim3 in spinal cord ([2]; e9.5 to e11.5, 2 μM): expansion of cells expressing Lim3
- effect on wild-type embryos ([2]; embryo cultures): no obvious effect
- GSK-3βFRB* protein levels in embryos [3]: partially restored
